Measured values from patent US20130259830A1, “CRTH2 MODULATORS” (Ironwood Pharmaceuticals, Inc., priority 2010, published 2013).

Legend:
CRTH2 [1] = biological target: T1, CRTH2 (Homo sapiens, UniProt Q9Y5Y4); assay: DPBS CD11b antagonist assay (CD11b expression in eosinophils challenged with 15R-Methyl-PGD2); type: cell-based; details: polymorphonuclear cells in PBS with CaCl2/MgCl2; agonist 15R-Methyl-PGD2 10 nM; eosinophils gated by flow cytometry
T1 construct: endogenous in cells; host or cells: eosinophils in human whole blood
T1 sequence (Q9Y5Y4 1-395): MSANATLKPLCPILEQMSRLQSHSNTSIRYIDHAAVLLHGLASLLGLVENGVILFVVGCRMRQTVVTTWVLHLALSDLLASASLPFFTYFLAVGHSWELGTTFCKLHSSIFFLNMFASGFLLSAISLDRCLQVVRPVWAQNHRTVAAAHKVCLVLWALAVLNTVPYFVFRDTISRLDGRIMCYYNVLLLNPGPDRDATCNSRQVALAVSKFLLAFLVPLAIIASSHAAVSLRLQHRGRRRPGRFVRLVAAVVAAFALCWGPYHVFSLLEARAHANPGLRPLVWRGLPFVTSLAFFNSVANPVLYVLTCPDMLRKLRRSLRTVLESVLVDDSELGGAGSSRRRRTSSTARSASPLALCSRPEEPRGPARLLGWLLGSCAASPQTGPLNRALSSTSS
Method: DPBS CD111b Antagonist Assay.
The potential CRTH2 antagonist, activity of certain compounds was tested using a CD11b expression assay using essentially the method described by Monneret et al. (J Pharmacol Exp Ther 304:349-55, 2003). Briefly, polymorphonuclear cells (0.5 ml; 10^6/ml cells) in PBS containing 0.9 mM CaCl2 and 0.5 mM MgCl2) were preincubated with various concentrations of test compounds at room temperature for 10 minutes before they were challenged with the agonist 15R-Methyl-PGD2 (10 nM). The incubations were terminated by the addition of ice-cold FACSFlow (BD Biosciences; Cat#342003) and centrifugation (400 g for 5 minutes at 4° C.). The cells were then incubated for 30 minutes at 4° C. with a mixture of PE-labeled mouse anti-human VLA-4 (5 μl; BD Biosciences) and FITC-labeled mouse anti-human CD11b (10 μl; Beckman Coulter). The cells were then incubated with Optilyse C (0.25 ml; Beckman Coulter) for 15 minutes, centrifuged, and then fixed in PBS (0.4 ml; calcium and magnesium free) containing 1% formaldehyde. The distribution of fluorescence intensities among 60,000 cells was measured by flow cytometry. Eosinophils were gated out on the basis of their granularity (high side scatter) and labeling with VLA-4 (PE fluorescence). CD11b was then measured in the eosinophil region on the basis of fluorescence due to FITC. All data were corrected for the value obtained for the corresponding isotope control antibody.

CRTH2 [2] = biological target: T1, CRTH2; assay: Human whole blood CD11b antagonist assay (CD11b expression in eosinophils challenged with 15-R-methyl-PGD2); type: cell-based; details: 37° C. 10 minutes preincubation, agonist 15R-Methyl-PGD2 10 nM, eosinophils gated by flow cytometry
Method: Human Whole Blood […] Antagonist Assay (Modified from Nicholson, et al. Pulmonary Pharmacology and Therapeutics: 20 (2007); 52-59).
The potential CRTH2 antagonist activity of certain compounds was tested in human whole blood using an assay that tests the ability of the compounds to block the CD11b expression in eosinophils by 15-R-methyl-PGD2. A CRTH2 antagonist should block CD11b expression by subsequently added 15-Methyl-PGD2. Human whole blood (200 μL) was incubated at 37° C. for 10 minutes in the presence of various concentrations of test compounds before being challenged with the agonist 1-5R-Methyl-PGD2 (10 nM). Reactions were terminated by the addition of ice-cold PBS+0.5% BSA+2 mM EDTA (1 mL) and centrifugation (300×g for 5 minutes at 4° C.) Cells were then incubated at 4° C. for 10 min in the presence of human IgG. Cells were then incubated for 30-45 min with a mixture of PE-Cy5-labeled mouse anti-human CD16 (10 ul; BD Biosciences) and FITC-labeled mouse anti-human CD11b (10 μL; Beckman Coulter.) After rinsing (1 mL ice-cold PBS+0.5% BSA+2 mM EDTA), red blood cells were lysed by the addition of 1 mL ice-cold H2O to the cell pellet for 30 sec-1 min immediately followed by the addition of 3.5% NaCl (300 μL.) Cells were then rinsed (2×−1 ml ice cold PBS+0.5% BSA+2m MEDTA) and fixed in PBS containing 1% formaldehyde. The distribution of fluorescence intensities was measured by flow cytometry. Eosinophils were gated out on the basis of their granularity (high side scatter) and absence of CD-16. CD11b was then measured on this eosinophil population on the basis of fluorescence due to FITC.

IC50 (CRTH2 [1]) | IC50 (CRTH2 [2]) | SMILES
1 to 5 nM | 100 to 500 nM | Cc1c(Cc2ccccc2NS(=O)(=O)N2CCCC2)c2c(n1CC(=O)O)CC(C)(C)CC2=O [Compound I-40, 2-(2,6,6-Trimethyl-4-oxo-3-(2-(pyrrolidine-1-sulfonamido)benzyl)-4,5,6,7-tetrahydro-1H-indol-1-yl)acetic acid]
500 to 3000 nM | 500 to 3000 nM | Cc1c(Cc2cccnc2S(C)(=O)=O)c2c(n1CC(=O)O)CC(C)(C)CC2=O [Compound I-32, 2-(2,6,6-Trimethyl-3-((2-(methylsulfonyl)pyridin-3-yl)methyl)-4-oxo-4,5,6,7-tetrahydro-1H-indol-1-yl)acetic acid]
1 to 5 nM | 20 to 100 nM | Cc1c(Cc2cc(OCC(F)(F)F)ccc2NS(=O)(=O)c2ccccc2)c2c(n1CC(=O)O)CC(C)(C)CC2=O [Compound I-36, 2-(2,6,6-Trimethyl-4-oxo-3-(2-(phenylsulfonamido)-5-(2,2,2-trifluoroethoxy)benzyl)-4,5,6,7-tetrahydro-1H-indol-1-yl)acetic acid]

Further lines, the compound ahead of its results:

SMILES | IC50 (CRTH2 [1]) | IC50 (CRTH2 [2])
Cc1c(Cc2cccnc2S(=O)(=O)c2ccccc2)c2c(n1CC(=O)O)CC(C)(C)CC2=O [Compound I-3, 2-(2,6,6-trimethyl-4-oxo-3-((2-(phenylsulfonyl)pyridin-3-yl)methyl)-4,5,6,7-tetrahydro-1H-indol-1-yl)acetic acid] | < 1 nM | 5 to 20 nM
Cc1c(Cc2cccnc2S(=O)(=O)c2ccc(C(F)(F)F)cc2)c2c(n1CC(=O)O)CC(C)(C)CC2=O [Compound I-12, 2-(2,6,6-Trimethyl-4-oxo-3-((2-(4-(trifluoromethyl)phenylsulfonyl)pyridin-3-yl)methyl)-4,5,6,7-tetrahydro-1H-indol-1-yl)acetic acid] | 100 to 500 nM | 500 to 3000 nM
CCOC(=O)N1CCN(S(=O)(=O)c2ccc(Cc3c4c(n(CC(=O)O)c3C)CCOC4)cc2)CC1 [Compound I-2, 2-(3-(4-(4-(Ethoxycarbonyl)piperazin-1-ylsulfonyl)benzyl)-2-methyl-6,7-dihydropyrano[4,3-b]pyrrol-1(4H)-yl)acetic acid] | 1 to 5 nM | 100 to 500 nM
